Results as given in patent US10227324B2 (Shanghai Haiyan Pharmaceutical Technology Co., Ltd., priority 2014, dated 2019).
Where two headings read alike, the source gives them in different places.

Columns and labels:
NIH3T3 cells = assay: Cytotoxicity by MTT assay, NIH3T3; type: cell-based; conditions: Mus musculus, NIH3T3, 72 h, cytotoxicity class, read-out: NIH3T3 cell (IC50/nM)
Method: The MTT assay procedure and steps were carried out as well known to those skilled in the art, and all the reagents used in the methods were commercially available.
(§1) The cells in logarithmic growth phase were digested with 0.25% EDTA trypsin (Gibco, 25200-056) and resuspended in fresh medium. 90 μL of the cell suspension was inoculated into a 96-well cell culture plate (BD Faclon 353072) with a suitable cell density and cultured at 37° C. under 5% CO2. After the cells adhered, 10 μL of the test compound at different concentrations (0.0046-10 μM, 8 concentration points) was added and incubated for another 72 h. 10 μL of MTT (5 mg/mL PBS solution) (Sigma, M5655) was added to react for 4 h. The absorbance at 492 nm was measured by using Thermo Scientific Multiskan MK3 microplate reader and IC50 was calculated using XLFIT 5.0 software (UK IDBS).

[1] = biological target: T1, PI3K-α kinase (p110α/p85α) (Homo sapiens, UniProt P42336); assay: Determination of PI3K kinase activity (ADP Transcreener, fluorescence polarization); type: biochemical; conditions: ATP 10 μM
T1 construct: purchased Invitrogen PV4788
Method: (§2) The inhibition of PI3K kinase activity by the compound to be tested was determined by the following method. The working concentration of each component in the 25 μL enzyme reaction system was: p110α/p85α 3 ng (or p110β/p85α 60 ng, or p110δ/p85α 90 ng, or p110γ 100 ng), ATP 10 μM, PIP2: PS (Invitrogen PV5100) 30 μM and the DMSO concentration was 2% after addition of the compound to be tested.
(§3) At the time of the test, the compound to be tested was dissolved in dimethylsulfoxide (DMSO) according to the desired concentration of the experiment. The compound to be tested was gradiently diluted 3 times (0.00046-1 μM, 8 concentration points) with 10% DMSO. 5 μL of the compound to be tested was added to each well of a 96-well plate (Greiner 675076) in duplicate. […] 10 μL of ATP/PIP2: PS and 10 μL of the PI3K enzyme working solution were added to each well in a 96-well plate. The plate was shaken and mixed uniformly, and then incubated at 25° C. for 1 hour. At the same time, ADP and ATP (0.01 μM, 0.02 μM, 0.04 μM, 0.06 μM, 0.08 μM[…], 0.1 μM, 0.25 μM, 0.5 μM, 1 μM, 2 μM, 5 μM, 10 μM, 12 concentration points) were diluted with buffer to set the standard curve. After completion of the enzyme reaction, 25 μL of ADP assay solution (1% 100×ADP tracer, 0.79% ADP antibody and 10% 10× reaction stop solution) was added and incubated at 25° C. for 1 hour. Fluorescence polarization value [mP] of each well was measured with a Perkin Elmer Victor X5 Fluorescent Microplate. The ADP concentration [ADP] was calculated from the ADP/ATP standard curve and the IC50 values were calculated using the XLFit software.

[2] = tested on: Akt phosphorylation (Ser473-p-Akt) in PC-3 cells; assay: Inhibition of p-Akt phosphorylation level in PC-3 cells (cell level fluorescence imaging); type: cell-based; conditions: Homo sapiens; Akt phosphorylation in PC-3 cells, 2 hours incubation; read-out: PC-3 cell (IC50/nM)
Method: This experiment was performed by cell level fluorescence image processing method.
Triton X-100: 10% aqueous Triton X-100 solution (Sigma T8787-100 mL) was prepared, stored at 4° C. and diluted by 1:100 to give 0.1% Triton X-100 aqueous solution for use in the experiment.
Prodium Iodide (PI): 1 mg/mL (1.5 mM) PI (Sigma P4170) storage solution was prepared with PBS and stored at −25° C. in the dark. For use, the PI storage solution was diluted with PBS by 1:1000 to give a 1.5 μM solution and used in dark.
PC-3 cells in logarithmic growth phase were digested with 0.25% EDTA trypsin. 3000 cells/90 μL were seeded in a 96-well plate (BD 356692) and cultured at 37° C. and 5% CO2. After the cells adhered, 10 μL of the compound to be tested which was gradiently diluted 3 times (0.0046 to 10 μM, 8 concentration points, in duplicate) was added and incubated for 2 hours, followed by addition of 100 μL of 4% paraformaldehyde (DINGGUO AR-0211) and incubated at room temperature for 45 minutes. Then 100 μL of 0.1% Triton X-100 solution was added and incubated for another 30 minutes.
Triton X-100 solution was removed and the cells were rinsed with 200 μl of PBS twice (300 rpm vibration for 1 minute). The blocking solution (1% BSA solution in PBS) (Genview FA016-100G) was added and incubated at room temperature for 2 hours. The plate was rinsed with PBS once (300 rpm, 1 min) and 30 μL of Ser473-p-Akt antibody (cell signaling 4060L) diluted with 0.1% BSA was added and incubated overnight at 4° C. Ser473-p-Akt antibody was removed and the plate was rinsed with PBS twice (300 rpm, 1 minute). 35 μL of Alexa Flour 488 donkey anti-rabbit IgG (Invitrogen A21206) was added and incubated at room temperature for 1.5 hours. The plate was rinsed with PBS twice (300 rpm, 1 minute) and 35 μL of 1.5 μM PI was added and incubated at room temperature for 0.5 h. The fluorescence intensity was measured with Acumen eX3 (TTP LabTech).
10 μM BEZ235 (Selleck S1009) treatment group was negative control and DMSO treatment group was positive control. Inhibition ratio %=[1−(the mean value of the fluorescence intensity of the compound to be tested−the mean value of the fluorescence intensity of the negative control group)/(the mean value of the fluorescence intensity of the positive control group−the mean value of the fluorescence intensity of the negative control group)]×100%

PI3K-γ kinase (p110γ) = biological target: T2, PI3K-γ kinase (p110γ) (Homo sapiens, UniProt P48736); assay: Determination of PI3K kinase activity (ADP Transcreener, fluorescence polarization); type: biochemical; conditions: Table 1; ATP 10 μM; read-out: PI3K-γ/nM (IC50 of inhibitory activity against PI3K kinase)
T2 construct: purchased Invitrogen PV4786
Method: The PI3K kinase used in the experiment: p110α/p85α (Invitrogen PV4788), p110β/p85α (Millipore 14-603), p110δ/p85α (Millipore 14-604M), and p110γ (Invitrogen PV4786).
as §2
as §3, with “duplicate. 2.5× buffer was prepared and 1 μL of DTT (Millipore 20-265) was added to each 800 μL of 2.5× buffer.” for “duplicate.”

[3] = biological target: T3, PI3K-β kinase (p110β/p85α) (Homo sapiens, UniProt P42338); assay: as above; type: biochemical; conditions: Table 1; ATP 10 μM; read-out: PI3K-β/nM (IC50 of inhibitory activity against PI3K kinase)
T3 construct: purchased Millipore 14-603
Method: as §2, §3

[4] = biological target: T4, PI3K-δ kinase (p110δ/p85α) (Homo sapiens, UniProt O00329); assay: as above; type: biochemical; conditions: Table 1; ATP 10 μM; read-out: PI3K-δ/nM (IC50 of inhibitory activity against PI3K kinase)
T4 construct: purchased Millipore 14-604M
Method: as §2, §3

MCF-7 cells = assay: Cell inhibitory activity detected by MTT assay, MCF-7; type: cell-based; conditions: Homo sapiens, MCF7, 72 h, read-out: MCF-7 cell (IC50/nM), cell growth inhibition
Method: as §1, with “The MTT assay procedure and steps were carried out as well known to those skilled in the art, and all the reagents used in the methods were commercially available. The cells” for “The cells”, “(UK IDBS). MCF-7 cell culture medium: DMEM medium (Hyclone SH30243.01B+10% FBS (Gibco 10099-141)” for “(UK IDBS).”

T47D cells = assay: Cell inhibitory activity detected by MTT assay, T47D; type: cell-based; conditions: Homo sapiens, T47D, 72 h, read-out: T47D cell (IC50/nM), cell growth inhibition
Method: as §1, with “The MTT assay procedure and steps were carried out as well known to those skilled in the art, and all the reagents used in the methods were commercially available. The cells” for “The cells”, “(UK IDBS). T47D cell culture medium: RPMI-1640 medium (Hyclone SH30809.01B)+10% FBS (Gibco 10099-141)” for “(UK IDBS).”

[5] = Table 2, read-out: PI3K-α/nM (IC50 of inhibitory activity against PI3K-α kinase)
[6] = Table 1, read-out: PI3K-α/nM (IC50 of inhibitory activity against PI3K kinase)

T1 sequence (P42336 whole entry): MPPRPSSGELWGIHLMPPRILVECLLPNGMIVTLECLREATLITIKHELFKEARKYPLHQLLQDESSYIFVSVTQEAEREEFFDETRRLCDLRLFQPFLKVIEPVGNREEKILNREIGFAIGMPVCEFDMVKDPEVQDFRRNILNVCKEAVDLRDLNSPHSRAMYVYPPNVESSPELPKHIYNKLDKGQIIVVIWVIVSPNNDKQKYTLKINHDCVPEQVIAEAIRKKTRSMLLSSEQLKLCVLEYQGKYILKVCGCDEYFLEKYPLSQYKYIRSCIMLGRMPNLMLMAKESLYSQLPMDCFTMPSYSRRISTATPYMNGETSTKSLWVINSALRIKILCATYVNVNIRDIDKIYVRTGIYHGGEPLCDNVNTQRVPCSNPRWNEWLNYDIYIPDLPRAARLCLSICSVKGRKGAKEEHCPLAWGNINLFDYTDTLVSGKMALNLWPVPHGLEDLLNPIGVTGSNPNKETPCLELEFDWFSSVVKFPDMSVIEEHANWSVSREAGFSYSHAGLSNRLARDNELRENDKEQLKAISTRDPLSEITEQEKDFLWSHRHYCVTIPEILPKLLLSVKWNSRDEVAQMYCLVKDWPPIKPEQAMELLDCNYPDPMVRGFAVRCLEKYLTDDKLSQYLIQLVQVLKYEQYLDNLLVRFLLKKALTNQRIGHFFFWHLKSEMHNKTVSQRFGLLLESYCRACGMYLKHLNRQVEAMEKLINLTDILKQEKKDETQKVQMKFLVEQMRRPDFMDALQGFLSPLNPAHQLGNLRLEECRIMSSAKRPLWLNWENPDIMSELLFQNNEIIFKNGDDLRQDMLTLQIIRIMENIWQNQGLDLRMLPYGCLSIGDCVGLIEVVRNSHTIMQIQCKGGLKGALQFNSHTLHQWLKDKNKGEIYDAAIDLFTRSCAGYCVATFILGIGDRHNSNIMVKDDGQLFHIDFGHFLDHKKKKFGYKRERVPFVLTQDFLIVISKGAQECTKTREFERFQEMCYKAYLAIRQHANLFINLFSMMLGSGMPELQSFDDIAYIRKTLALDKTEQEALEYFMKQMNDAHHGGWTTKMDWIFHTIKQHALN
T1 sequence (P27986 whole entry partner): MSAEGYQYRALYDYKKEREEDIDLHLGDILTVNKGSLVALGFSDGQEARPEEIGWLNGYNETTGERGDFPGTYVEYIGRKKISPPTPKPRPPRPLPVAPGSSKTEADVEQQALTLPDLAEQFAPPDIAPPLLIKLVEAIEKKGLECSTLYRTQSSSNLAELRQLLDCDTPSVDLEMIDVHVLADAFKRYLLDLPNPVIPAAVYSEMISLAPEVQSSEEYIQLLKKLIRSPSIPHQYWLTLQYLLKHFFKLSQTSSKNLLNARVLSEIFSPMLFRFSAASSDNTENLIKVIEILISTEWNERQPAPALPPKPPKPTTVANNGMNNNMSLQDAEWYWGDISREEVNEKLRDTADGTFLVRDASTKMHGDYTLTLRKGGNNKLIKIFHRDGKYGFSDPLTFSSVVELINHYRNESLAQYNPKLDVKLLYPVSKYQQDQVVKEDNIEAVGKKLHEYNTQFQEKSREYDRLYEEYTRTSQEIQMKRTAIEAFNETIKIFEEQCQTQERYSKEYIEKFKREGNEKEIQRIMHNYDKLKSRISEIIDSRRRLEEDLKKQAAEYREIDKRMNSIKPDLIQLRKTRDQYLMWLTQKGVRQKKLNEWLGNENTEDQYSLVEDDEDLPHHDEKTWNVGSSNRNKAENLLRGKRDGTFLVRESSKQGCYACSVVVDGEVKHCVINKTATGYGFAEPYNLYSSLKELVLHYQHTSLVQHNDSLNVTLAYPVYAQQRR
T3 sequence (P42338 whole entry): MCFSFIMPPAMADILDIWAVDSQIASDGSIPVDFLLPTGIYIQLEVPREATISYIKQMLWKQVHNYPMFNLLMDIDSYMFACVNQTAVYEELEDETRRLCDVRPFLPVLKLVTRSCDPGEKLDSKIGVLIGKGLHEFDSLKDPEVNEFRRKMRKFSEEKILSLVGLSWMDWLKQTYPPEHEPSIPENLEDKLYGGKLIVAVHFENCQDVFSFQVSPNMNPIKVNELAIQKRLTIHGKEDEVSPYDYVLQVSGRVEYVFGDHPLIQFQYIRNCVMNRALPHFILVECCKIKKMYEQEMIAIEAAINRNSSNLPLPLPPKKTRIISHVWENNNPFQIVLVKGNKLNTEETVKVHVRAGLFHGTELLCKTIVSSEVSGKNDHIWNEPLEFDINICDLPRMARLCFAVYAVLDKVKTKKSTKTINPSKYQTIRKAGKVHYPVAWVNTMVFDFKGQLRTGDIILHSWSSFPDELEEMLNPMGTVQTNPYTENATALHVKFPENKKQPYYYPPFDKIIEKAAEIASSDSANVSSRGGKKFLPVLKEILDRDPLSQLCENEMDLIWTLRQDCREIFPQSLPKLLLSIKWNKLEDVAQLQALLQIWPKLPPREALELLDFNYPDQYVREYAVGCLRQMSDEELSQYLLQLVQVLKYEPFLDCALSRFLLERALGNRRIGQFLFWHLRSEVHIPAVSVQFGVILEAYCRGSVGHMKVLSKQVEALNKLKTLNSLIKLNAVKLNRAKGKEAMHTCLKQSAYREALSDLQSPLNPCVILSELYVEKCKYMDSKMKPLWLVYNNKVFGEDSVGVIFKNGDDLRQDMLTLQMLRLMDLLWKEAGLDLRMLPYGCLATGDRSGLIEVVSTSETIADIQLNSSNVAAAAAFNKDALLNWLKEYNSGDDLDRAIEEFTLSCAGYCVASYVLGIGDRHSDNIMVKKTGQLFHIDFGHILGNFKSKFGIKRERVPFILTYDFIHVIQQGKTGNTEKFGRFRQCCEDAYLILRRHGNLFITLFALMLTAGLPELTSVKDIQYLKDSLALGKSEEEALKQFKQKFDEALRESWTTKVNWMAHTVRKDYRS
T3 sequence (P27986 whole entry partner): as the sequence (P27986 whole entry partner) above
T4 sequence (O00329 whole entry): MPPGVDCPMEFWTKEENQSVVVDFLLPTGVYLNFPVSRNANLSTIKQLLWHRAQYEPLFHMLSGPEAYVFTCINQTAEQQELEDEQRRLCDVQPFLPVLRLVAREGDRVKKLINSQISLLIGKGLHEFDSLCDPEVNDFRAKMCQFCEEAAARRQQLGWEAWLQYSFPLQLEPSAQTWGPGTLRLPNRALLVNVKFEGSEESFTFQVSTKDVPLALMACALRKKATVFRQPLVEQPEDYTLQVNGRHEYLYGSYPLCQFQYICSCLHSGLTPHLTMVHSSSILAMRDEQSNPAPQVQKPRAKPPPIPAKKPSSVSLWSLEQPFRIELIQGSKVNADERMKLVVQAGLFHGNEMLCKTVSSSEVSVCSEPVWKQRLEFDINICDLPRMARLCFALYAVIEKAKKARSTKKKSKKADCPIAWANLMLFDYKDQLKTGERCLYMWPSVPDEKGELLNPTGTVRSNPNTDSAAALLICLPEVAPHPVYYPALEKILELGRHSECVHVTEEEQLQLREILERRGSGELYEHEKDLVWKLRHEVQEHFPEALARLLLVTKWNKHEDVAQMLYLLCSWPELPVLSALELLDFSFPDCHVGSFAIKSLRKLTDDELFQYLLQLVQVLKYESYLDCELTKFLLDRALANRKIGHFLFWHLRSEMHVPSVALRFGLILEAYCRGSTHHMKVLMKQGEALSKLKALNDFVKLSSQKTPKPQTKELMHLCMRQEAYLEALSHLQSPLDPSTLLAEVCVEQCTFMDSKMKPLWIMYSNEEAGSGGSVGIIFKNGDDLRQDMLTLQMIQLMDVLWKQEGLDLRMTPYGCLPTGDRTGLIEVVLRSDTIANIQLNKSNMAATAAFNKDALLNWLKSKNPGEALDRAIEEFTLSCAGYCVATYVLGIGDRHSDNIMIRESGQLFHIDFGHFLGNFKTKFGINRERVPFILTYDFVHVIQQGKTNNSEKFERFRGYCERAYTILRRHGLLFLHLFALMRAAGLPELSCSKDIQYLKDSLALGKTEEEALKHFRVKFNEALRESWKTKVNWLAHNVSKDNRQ
T4 sequence (P27986 whole entry partner): as the sequence (P27986 whole entry partner) above
T2 sequence (P48736 whole entry): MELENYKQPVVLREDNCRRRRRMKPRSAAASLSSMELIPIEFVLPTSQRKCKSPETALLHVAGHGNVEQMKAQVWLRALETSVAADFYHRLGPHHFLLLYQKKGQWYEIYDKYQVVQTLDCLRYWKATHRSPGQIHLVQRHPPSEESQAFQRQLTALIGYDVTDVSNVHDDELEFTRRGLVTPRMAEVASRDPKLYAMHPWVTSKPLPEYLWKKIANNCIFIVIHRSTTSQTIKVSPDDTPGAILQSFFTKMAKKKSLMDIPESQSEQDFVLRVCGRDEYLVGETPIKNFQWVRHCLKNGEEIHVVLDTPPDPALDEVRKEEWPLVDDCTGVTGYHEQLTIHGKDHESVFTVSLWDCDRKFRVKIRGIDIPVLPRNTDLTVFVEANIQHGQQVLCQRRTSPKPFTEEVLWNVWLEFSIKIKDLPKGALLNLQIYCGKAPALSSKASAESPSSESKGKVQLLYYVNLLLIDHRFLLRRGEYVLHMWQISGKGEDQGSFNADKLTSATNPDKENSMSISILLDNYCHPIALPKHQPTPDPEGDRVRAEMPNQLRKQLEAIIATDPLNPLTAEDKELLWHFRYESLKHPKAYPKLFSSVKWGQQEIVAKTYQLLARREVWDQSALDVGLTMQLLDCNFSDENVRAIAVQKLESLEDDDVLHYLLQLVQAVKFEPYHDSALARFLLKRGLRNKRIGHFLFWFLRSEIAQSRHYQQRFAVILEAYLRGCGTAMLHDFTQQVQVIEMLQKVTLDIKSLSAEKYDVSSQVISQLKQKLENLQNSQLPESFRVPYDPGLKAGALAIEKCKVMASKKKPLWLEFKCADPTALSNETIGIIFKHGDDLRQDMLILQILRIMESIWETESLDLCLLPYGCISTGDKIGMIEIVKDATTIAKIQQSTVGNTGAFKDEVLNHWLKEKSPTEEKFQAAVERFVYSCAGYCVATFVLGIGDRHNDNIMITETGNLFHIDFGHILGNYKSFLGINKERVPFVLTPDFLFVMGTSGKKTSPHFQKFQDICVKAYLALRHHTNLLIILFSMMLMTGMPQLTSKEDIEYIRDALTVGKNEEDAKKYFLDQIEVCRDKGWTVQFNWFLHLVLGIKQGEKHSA

Structure (SMILES)	IC50 (NIH3T3 cells)	IC50 [2]	IC50 (MCF-7 cells)	further results
Nc1cc(C(F)(F)F)c(-c2cc(C3(C(=O)N4CCOCC4)CC3)nc(N3CCOCC3)n2)cn1 [Compound S-3, (1-(6-(6-amino-4-(trifluoromethyl)pyridin-3-yl)-2-morpholinopyrimidin-4-yl)cyclopropyl)(morpholino)ketone]	> 10000 nM	–	–	IC50 [1, 5]: 280 nM
Nc1cc(C(F)(F)F)c(-c2cc(C3(C(=O)N4CCCCC4)CC3)nc(N3CCOCC3)n2)cn1 [Compound S-7]	> 10000 nM	–	–	–
CC(C)(O)c1cc(-c2cnc(N)nc2C(F)(F)F)nc(N2CCOCC2)n1 [Compound S-64]	–	330 nM	–	IC50 (PI3K-γ kinase (p110γ)): 431 nM; IC50 [1, 6]: 13 nM; IC50 [3]: 27 nM; IC50 [4]: 19 nM
C[C@H]1COCCN1c1nc(-c2cnc(N)cc2C(F)(F)F)cc(C2(S(=O)(=O)c3ccccc3)CCC2)n1 [Compound S-15]	5000 to 10000 nM	–	–	–
C[C@@H]1COCCN1c1nc(-c2cnc(N)cc2C(F)(F)F)cc(C2(S(C)(=O)=O)CC2)n1 [Compound S-5]	1000 to 3000 nM	–	–	–
Nc1cc(C(F)(F)F)c(-c2cc(N3CCOCC3)nc(N3CCOCC3)n2)cn1 [BKM-120, reference compound]	–	596 nM	–	–
CC(C)(c1cc(-c2ccc(N)nc2)nc(N2CCOCC2)n1)S(C)(=O)=O [Compound S-39]	–	513 nM	441 nM	–
CC(C)(O)c1cc(-c2cnc(N)cc2Cl)nc(N2CCOCC2)n1 [Compound S-63]	–	577 nM	240 nM	IC50 (PI3K-γ kinase (p110γ)): 428 nM; IC50 [1, 6]: 21 nM; IC50 [3]: 228 nM; IC50 [4]: 158 nM
CC(C)(c1cc(-c2cnc(N)cc2C(F)(F)F)nc(N2CCOCC2)n1)n1ncc2ccccc21 [Compound S-56, 5-(6-(2-(1H-indazol-1-yl)propan-2-yl)-2-morpholinopyrimidin-4-yl)-4-(trifluoromethyl)pyridin-2-amine]	> 10000 nM	–	–	–
Nc1cc(C(F)(F)F)c(-c2cc(C3(CN4CCOCC4)CC3)nc(N3CCOCC3)n2)cn1 [Compound S-8, 5-(2-morpholino-6-(1-(morpholinomethyl)cyclopropyl)pyrimidin-4-yl)-4-(trifluoromethyl)pyridin-2-amine]	> 10000 nM	–	–	–
CS(=O)(=O)C1(c2cc(-c3cnc(N)cc3C(F)(F)F)nc(N3CCOCC3)c2)CC1 [Comparative compound 1, 4-(1-(methylsulfonyl)cyclopropyl)-6-morpholino-4′-(trifluoromethyl)-2,3′bipyridyl-6′-amine, reference compound]	–	2260 nM	996 nM	IC50 (T47D cells): 1220 nM
CNc1cc(C(F)(F)F)c(-c2cc(C3(S(C)(=O)=O)CC3)nc(N3CCOCC3)n2)cn1 [Compound S-36]	3000 to 5000 nM	–	–	–
CS(=O)(=O)C1(c2cc(-c3ccc(N)nc3)nc(N3CCOCC3)n2)CC1 [Compound S-40]	–	465 nM	355 nM	IC50 [1, 5]: 92 nM
